Data as given in PMC11288129, “Diversely evolved xibalbin variants from remipede venom inhibit potassium channels and activate PKA-II and Erk1/2 signaling” (BMC Biology, 2024).
Positions of bridges follow the written chain, without caps; N, C: chain ends. No end group written: not given here.

What was measured:
[1] = test system: HMEC-1 human microvascular endothelial cells; assay: Proliferation of HMEC-1 cells (crystal violet); type: cell-based; conditions: 25 µg/ml
Description: We initially determined the cytotoxic effects of xibalbins on primary sensory neurons from adult male rats cultured in vitro [2]. […] We exposed overnight cultures of dissociated rat dorsal root ganglions (DRGs) to xibalbins for 5 and 30 min. Subsequently, all cells were fixed and immunocytochemically stained for the neuronal marker UCHL1 to identify neurons. The entire culture was digitally scanned using high content imaging (HCI) microscopy, and cell numbers, UCHL1 staining per cell, and cell size was analyzed. No loss of neurons was induced by either of the tested xibalbins, even at the highest concentration of 0.8 µg/µL (Additional File 3: Figure S2). […] We further investigated the potential toxicity of xibalbins in monocyte/macrophage-like cells (RAW264.7) and human microvascular endothelial cells (HMEC); see Additional File 5: Figure S4 The viability of RAW264.7 cells was detected using a formazan-based assay, while the proliferation of HMECs was assessed by measuring the number of crystal violet-stained cells.
Supplementary file 12915_2024_1955_MOESM5_ESM.jpg: Additional file 5: Figure S4. Effects of xibalbins on cytotoxicity in RAW264.7 macrophages and adhesion of leukocytes onto the vascular endothelium. […] Cells were incubated with WST-8 and the formed formazan was detected by absorbance measurements. […] The amount of DNA-bound crystal violet was detected by absorbance measurements. […]

[2] = test system: THP-1 cell adhesion to HMECs; assay: Adhesion of THP-1 leukocytes onto TNF-activated endothelial cells; type: cell-based, human; conditions: 25 µg/ml
Description: Nitric oxide has a complex and diverse role in pain modulation. […] Finally, we analyzed the effects of xibalbins on the leukocyte adhesion to the vascular endothelium, which is a critical step in the inflammatory response of inflamed tissues. Xibalbins were analyzed for their ability to alter the adhesion of human monocytic (THP-1) cells onto a TNF-activated endothelial cell monolayer (Additional File 5: Figure S4). […] All individual values for these experiments are given in Additional File 8: Table S3.
Supplementary file 12915_2024_1955_MOESM5_ESM.jpg: Additional file 5: Figure S4. Effects of xibalbins on cytotoxicity in RAW264.7 macrophages and adhesion of leukocytes onto the vascular endothelium. (i) For the viability assay, RAW264.7 cells were treated with 25 μg/ml concentrations of xibalbins for 24 h. Cells were incubated with WST-8 and the formed formazan was detected by absorbance measurements. (ii) For the proliferation assay, HMEC-1 cells were grown in low density and treated after 24 h with the indicated peptide for 72 h. Cells were stained with crystal violet solution. The amount of DNA-bound crystal violet was detected by absorbance measurements. […] The adhesion of leukocytes onto endothelial cells was quantified by fluorescence measurements using a Tecan Infinite F200 Pro microplate reader (Tecan, Männedorf, Switzerland) (excitation: 485 nm, emission: 535 nm). […]

**Q.** With “KRSCIRRFGRCDHRPNDCCYNSSCRCNLWGSNCRCQRMGLFQKWGK (disulfide 4-19, 11-24, 18-35, 26-33) [xib13]” as the sequence, how does the “Prolif. HMEC-1” value [1] read?
**A.** 91.3

**Q.** What about the “Prevention of Leukocyte Adh. on HMEC-1” value [2] of the same sequence?
**A.** 106.6
